Measured values from patent US8999934B2, “Treatment of astrocytes-tumor cells inhibitors of endothelin receptors” (Board of Regents, The University of Texas System, priority 2009, dated 2015).
“And” between values parts separate entries of the source, which are not always exact repeats. Equal entries are not always repeated.

Assays:
[1] = test system: human PC14Br4 lung cancer cells; type: cell-based; settings: for protection of tumor cells against the drug by co-culture with astrocytes: cultured alone vs with astrocytes, Adriamycin 200 ng/ml, vinblastine 3 ng/ml, vincristine 8 ng/ml, 5-FU 500 ng/ml, cisplatinum 2.4 μg/ml
Experimental: (§1) Astrocytes and NIH 3T3 fibroblasts were transfected with GFP genes as previously described (S5, S6). Target tumor cells, astrocytes, or 3T3 fibroblasts were harvested from a 60-70% confluent culture by a brief (2-minute) exposure to 0.25% trypsin in a 0.1% EDTA/PBS solution. The cells were dislodged by tapping the culture flasks briskly and resuspended in CMEM. The murine astrocytes, 3T3 fibroblasts, and tumor cells were plated alone or as co-culture at a tumor cell/astrocyte/3T3 cell ratio of 1:2 onto each of the 35-mm diameter well of the sterile 6-well tissue culture multi-well dish. The cells were allowed to adhere overnight in a humidified 37° C. incubator in an atmosphere of 6.4% carbon dioxide plus air. The cultures were then washed and incubated with fresh CMEM (negative control) or medium containing various concentrations of TAXOL® (Paclitaxel; NDC 0015-3476-30, Bristol-Myers Squibb, Princeton, N.J.) and other chemotherapeutic drugs (see below).
(§2) To determine whether direct contact between tumor cells and astrocytes (or fibroblasts serving as control) was a prerequisite to produce induction of resistance to chemotherapy, we performed the co-culture assay using a Transwell-Boyden chamber, i.e., plating the tumor cells in the chamber and the ImmortoAstrocytes (or fibroblasts) in the well. […]
In the second set of in vitro studies, we determined whether astrocyte-mediated induction of tumor cell resistance to chemotherapeutic drugs is transient or permanent. The human lung cancer PC14Br4 cells were co-cultured with either astrocytes or 3T3 fibroblasts in medium alone or medium containing 5 ng/ml paclitaxel. […] From parallel wells, we harvested surviving tumor cells and re-plated them on different monolayers of astrocytes or 3T3 cells. These co-cultures were of tumor cells first co-cultured with astrocytes and then with either astrocytes or 3T3 cells, or of tumor cells first cultured with 3T3 cells and then with either 3T3 cells or astrocytes. The second round of co-cultures then received media containing 5 ng/ml of paclitaxel. […]
(§3) The supernatant medium containing floating cells were collected from each dish into a 15-ml conical centrifuge tube. The attached cells were harvested by briefly exposing the cells to 0.25% trypsin in a solution containing 0.1% EDTA/PBS. Cells were combined with the corresponding supernatant medium. The samples were pelleted by centrifugation at 100 g for 5 minutes. The pellets were resuspended in 10 ml of HBSS and further pelleted at 100 g for 5 minutes. The samples were resuspended by vortex and the cells fixed in 1 ml of 1% paraformaldehyde for 10 minutes at room temperature. The samples were then transferred into polypropylene microcentrifuge tubes and the fixed cells were washed in 1 ml of PBS and then pelleted at 10,000 g for 1 minute. The pellets were resuspended by vortex and the cells fixed overnight in 1 ml of ethanol at −20° C. The cells were subsequently vortexed and pelleted by a microcentrifuge at 10,000 g for 1 minute. The samples were then vortexed and the pellets resuspended and stained in 300 of propidium iodide (50 μg/ml; Cat. P4864, Sigma) containing RNAse (15 μg/ml; Cat. A7973, Promega, Madison, Wis.) for 20-30 minutes at 37° C.

[2] = test system: pAKT; test: Expression of survival factor pAKT in co-cultures of astrocytes and tumor cells; type: cell-based; settings: ACT-064992 added to co-cultures of astrocytes and tumor cells
Experimental: (§4) ETR antagonists as shown above were ineffective as a single agent chemotherapy. This negative result made the dramatic effect seen with ETR antagonists as a component of combination therapies highly unexpected. In co-culture experiments, cell culture ratios were 1:2 tumor cell:astrocyte cell (50, 000:100,000), and treatments were using paclitaxel (TAXOL®) (6 ng/ml) and/or ACT-064992 (100 nM) for 48 hours (FIG. 15; *p<0.01). For the control experiments using MDA-MB-231 cells, the same astrocyte-mediated protection from paclitaxel occurred as in prior experiments. There were two surprising results from these combination experiments.

[3] = test system: pMAPK; test: Expression of survival factor pMAPK in co-cultures of astrocytes and tumor cells; type: cell-based; settings: ACT-064992 added to co-cultures of astrocytes and tumor cells
Experimental: as §4

[4] = test system: MDA231 brain metastases; test: In vivo tumor cell proliferation, CD31/Ki67 staining of brain slices; parameters: species or system nude mice; settings: Paclitaxel 8 mg/kg i.p. once per week, ACT-064992 50 mg/kg orally once per day, 28 days
Source text: Representative brain slices from the four treatment groups were stained for CD31 (endothelial cell marker) and Ki67 (cell proliferation marker). […] FIGS. 20A, B, C and D, respectively.

[5] = test system: ETAR/ETBR; settings: requires ⅓ the dose; cited from earlier work
[6] = test system: ETAR; test: ETAR/phosphoserine immunostaining of brain slices; settings: Paclitaxel 8 mg/kg i.p. once per week, ACT-064992 50 mg/kg orally once per day, 28 days
Experimental: Female nude mice (10-12 weeks old) were injected in the internal carotid artery with 10,000 viable MDA231 cells. Two weeks after the injection when brain metastases were established, the mice were randomized into 4 treatment groups (n=10): 1) Control (injected with vehicle solution); 2) Paclitaxel (8 mg/kg administered intraperitoneally once per week); 3) ACT-064992 (50 mg/kg administered orally once per day); and 4) Combination of ACT-064992 and Paclitaxel. All mice were euthanized after 28 days of treatment and autopsied. The brains were collected for histologic study and immunohistochemistry.
Brain slices of mice from the four treatment groups were immunostained for ETAR (red) and phosphoserine (green) colocalization produced orange-yellow color.

[7] = test system: MDA231 breast cancer brain metastasis; test: Survival study, experimental human MDA231 breast cancer brain metastasis; type: in vivo, nude mice; settings: 5×10^3 MDA231 cells, treatment from day 14, Paclitaxel 5 mg/kg i.p. once weekly, individual mice
Experimental: 5×10^3 MDA231 cells were injected according to the protocol in Experiment 10. Treatment began on day 14 after injection according to the protocol in Experiment 10. A Survival curve is drawn and the p-value derived to compare the statistical significance among treatment groups.
Control (vehicle): daily oral administrations and once weekly i.p. injections.
Paclitaxel (5 mg/kg): daily oral vehicle administrations and once weekly i.p. injection of Paclitaxel.
ACT064992 (10 mg/kg): daily oral ACT064992 administrations and once weekly i.p. injections of Paclitaxel.

[8] = test system: human MDA-MB-231 breast cancer cells; type: cell-based
Experimental: as §1, §2, §3

[9] = test system: MDA231 brain metastases; test: In vivo tumor growth of MDA231 brain metastases (brain sections fixed and stained); parameters: species or system nude mice; settings: Paclitaxel 8 mg/kg i.p. once per week, ACT-064992 50 mg/kg orally once per day, 28 days of treatment
Experimental: To further validate the efficacy of endothelin receptor antagonist therapy for existing brain metastasis, the Inventors performed exemplary in vivo experiments using mice. Nude mice were injected with 10,000 viable MDA231 cells mice by way of the internal carotid artery. […] The Inventors thus started treatments at this time point.
The treatment groups at two weeks post injection were: Control (vehicle) (FIG. […] 18B); ACT-064992 50 mg/kg, p.o. daily (FIG. […] 18D).
All mice were killed on day 28 of treatment. Brain sections were fixed and stained. Brain metastases were evaluated visually. Exemplary specimens are shown in FIG. 18A-D at the same magnifications.

[10] = test system: MDA231 brain metastases; test: In vivo tumor cell apoptosis, TUNEL of brain slices; parameters: species or system nude mice; settings: Paclitaxel 8 mg/kg i.p. once per week, ACT-064992 50 mg/kg orally once per day, 28 days
Experimental: Brain slices of mice from different treatment groups were analyzed by in situ Terminal deoxynucleotidyl transferase dUTP nick end labeling (TUNEL). Negoescu A, et al., J Histochem Cytochem. 1996 September; 44(9):959-68. […] FIG. 21A-C.

[11] = test system: tumor cells co-cultured with astrocytes; test: In vitro cell based chemoresistance assay with endothelin receptor antagonists (overall statement); settings: higher dose Bosentan
Source text: Using the in vitro cell based chemoresistance assay scheme described above, the Inventors tested two endothelin receptor antagonists having dual ETAR and ETBR affinity to assess the degree of astrocyte-mediated protection against the cytotoxic effects of the chemotherapy agent.

[12] = test system: pAKT; test: pAKT staining of MDA-MB-231 cells co-cultured with astrocytes and treated with Taxol; type: cell-based, human; settings: MDA-MB-231 co-cultured with astrocytes; Taxol 15 ng/ml, 24 hours
Experimental: In the next set of studies, 10,000 GFP-labeled MDA-MB-231 cells were co-cultured with 20,000 astrocytes in chamber slides. Twenty-four hours later, the cultures were treated for 24 hours with Taxol (15 ng/ml) and then stained for phosphorylated pAKT (4% PFA fixation).

[13] = 100 nM, 48 hours, alone or with astrocytes or with 3T3 fibroblasts
[14] = tumor cell-astrocyte co-cultures 1:2, paclitaxel 6 ng/ml, ACT-064992 100 nM, 48 hours

Compound: O=c1[nH]cc(F)c(=O)[nH]1 [5-FU]
- protection of tumor cells against the drug by co-culture with astrocytes ([1]; paclitaxel 5 ng/ml): significant (P<0.01) protection

Compound: CCCNS(=O)(=O)Nc1ncnc(OCCOc2ncc(Br)cn2)c1-c1ccc(Br)cc1 [ACT-064992, N-[5-(4-bromophenyl)-6-(2-(5-bromopyrimidin-2-yloxy)ethoxy)-pyrimidin-4-yl]-N′-propylaminosulfonamide]
- expression of survival factor pAKT [2]: inhibited the expression
- expression of survival factor pMAPK [3]: inhibited the expression
- proliferating (Ki67) cells in brain [4]: a large number of proliferating cells
- pharmaceutical activity relative to Bosentan [5]: roughly three times more pharmaceutically active than Bosentan
- cytotoxic effects (degree of apoptosis) [1, 13]: did not produce any measurable cytotoxic effects
- phosphorylation of ETAR in brain [6]: prevented phosphorylation of the ETAR
- Day of death (after treatment) ([7]; ACT064992 10 mg/kg oral daily): 51 days and 63 days and 68 days and 75 days and 78 days and 82 days
- cytotoxic effects (degree of apoptosis) [8, 13]: did not produce any measurable cytotoxic effects
- effect on astrocyte-mediated protection from paclitaxel [8, 14]: negate the astrocyte-mediated protection from paclitaxel
- efficacy of paclitaxel compared to control experiments without astrocytes (super-sensitization) [8, 14]: enhanced the efficacy of paclitaxel
- brain metastatic tumors (histology) [9]: well defined metastatic tumors
- apoptotic (TUNEL) cells in brain [10]: few to no apoptotic cells

Compound: COc1cccc2c1C(=O)c1c(O)c3c(c(O)c1C2=O)C[C@@](O)(C(=O)CO)C[C@@H]3O[C@H]1C[C@H](N)[C@H](O)[C@H](C)O1 [Adriamycin]
- protection of tumor cells against the drug by co-culture with astrocytes ([1]; paclitaxel 5 ng/ml): significant (P<0.01) protection

Compound: COc1ccccc1Oc1c(NS(=O)(=O)c2ccc(C(C)(C)C)cc2)nc(-c2ncccn2)nc1OCCO [Bosentan]
- results of Bosentan experiments compared with the ACT-064992 experiments [11]: analogous results

Compound: N.N.[Cl][Pt][Cl] [cisplatinum]
- protection of tumor cells against the drug by co-culture with astrocytes ([1]; paclitaxel 5 ng/ml): significant (P<0.01) protection

Compound: CC(=O)O[C@H]1C(=O)[C@@]2(C)[C@H]([C@H](OC(=O)c3ccccc3)[C@]3(O)C[C@H](OC(=O)[C@H](O)[C@@H](NC(=O)c4ccccc4)c4ccccc4)C(C)=C1C3(C)C)[C@]1(OC(C)=O)CO[C@@H]1C[C@@H]2O [paclitaxel]
- proliferating (Ki67) cells in brain [4]: a large number of proliferating cells
- protection of tumor cells against the drug by co-culture with astrocytes ([1]; paclitaxel 5 ng/ml): significant (P<0.01) protection
- reduction of relative apoptotic index of tumor cells by culturing with astrocytes (increased chemoresistance) ([1]; paclitaxel 5 ng/ml, 72 hours, co-culture with astrocytes (not 3T3 fibroblasts), mean±S.D., P<0.05): 61.8±6.7%
- phosphorylation of ETAR in brain [6]: expressed phosphorylated ETAR
- Day of death (after treatment) ([7]; oral vehicle daily): 49 day and 53 day and 60 day and 63 day and 74 day (2×) and 78 day
- reduction of relative apoptotic index of tumor cells by culturing with astrocytes (increased chemoresistance) ([8]; paclitaxel 5 ng/ml, 72 hours, co-culture with astrocytes (not 3T3 fibroblasts), mean±S.D., P<0.01): 58.3 ± 8.9%
- brain metastatic tumors (histology) [9]: well defined metastatic tumors
- pAKT expression by tumor cells [12]: high levels of pAKT
- apoptotic (TUNEL) cells in brain [10]: few to no apoptotic cells

Compound: CC[C@]1(O)C[C@@H]2CN(CCc3c([nH]c4ccccc34)[C@@](C(=O)OC)(c3cc4c(cc3OC)N(C)[C@H]3[C@@](O)(C(=O)OC)[C@H](OC(C)=O)[C@]5(CC)C=CCN6CC[C@]43[C@@H]65)C2)C1 [vinblastine]
- protection of tumor cells against the drug by co-culture with astrocytes ([1]; paclitaxel 5 ng/ml): significant (P<0.01) protection

Compound: CC[C@]1(O)C[C@H]2CN(CCc3c([nH]c4ccccc34)[C@@](C(=O)OC)(c3cc4c(cc3OC)N(C=O)[C@H]3[C@@](O)(C(=O)OC)[C@H](OC(C)=O)[C@]5(CC)C=CCN6CC[C@]43[C@@H]65)C2)C1 [vincristine]
- protection of tumor cells against the drug by co-culture with astrocytes ([1]; paclitaxel 5 ng/ml): significant (P<0.01) protection
